Experimental data reported in ChEMBL document CHEMBL4622917, “Structure Elucidation and Absolute Configuration Determination of Nortriterpenoids from Picramnia glazioviana” (J Nat Prod, 2020).
The source made the active and inactive calls. The rule behind the calls is not given here.

Tests used:
MDA-MB-231 [1] = test: Cytotoxicity against human MDA-MB-231 cells assessed as cell viability at 100 uM incubated for 48 hrs by MTT assay relative to control; assay type: functional; details: MDA-MB-231, 48 h, read-out: Activity
A549 [2] = test: Cytotoxicity against human A549 cells incubated for 48 hrs by MTT assay; assay type: functional, cell-based; details: A549, 48 h
MDA-MB-231 [3] = test: Cytotoxicity against human MDA-MB-231 cells incubated for 48 hrs by MTT assay; assay type: functional, cell-based; details: MDA-MB-231, 48 h
A549 [4] = test: Cytotoxicity against human A549 cells assessed as cell viability at 100 uM incubated for 48 hrs by MTT assay relative to control; assay type: functional; details: A549, 48 h, read-out: Activity
SK-BR-3 [5] = test: Cytotoxicity against human SKBR3 cells assessed as cell viability at 100 uM incubated for 48 hrs by MTT assay relative to control; assay type: functional; details: SK-BR-3, 48 h, read-out: Activity
SK-BR-3 [6] = test: Cytotoxicity against human SKBR3 cells incubated for 48 hrs by MTT assay; assay type: functional, cell-based; details: SK-BR-3, 48 h
MDA-MB-231 [7] = test: Cytotoxicity against human MDA-MB-231 cells assessed as reduction in cell viability at 25 to 100 uM incubated for 48 hrs by MTT assay relative to control; assay type: functional, cell-based
MDA-MB-231 [8] = test: Cytotoxicity against human MDA-MB-231 cells assessed as reduction in cell viability at 12.5 to 100 uM incubated for 48 hrs by MTT assay relative to control; assay type: functional, cell-based
MDA-MB-231 [9] = test: Cytotoxicity against human MDA-MB-231 cells assessed as reduction in cell viability at 25 to 50 uM incubated for 48 hrs by MTT assay relative to control; assay type: functional, cell-based
MDA-MB-231 [10] = test: Cytotoxicity against human MDA-MB-231 cells assessed as reduction in cell viability at 50 to 100 uM incubated for 48 hrs by MTT assay relative to control; assay type: functional, cell-based
A549 [11] = test: Cytotoxicity against human A549 cells assessed as reduction in cell viability at 25 to 100 uM incubated for 48 hrs by MTT assay relative to control; assay type: functional, cell-based

CC1(C)O[C@H]2CC(=O)OC[C@]23[C@H]2CCC4=C([C@H]5CCC(=O)O5)C(=O)CC[C@@]4(C)[C@]2(C)CC[C@@H]13 gave a viability at 100 µM (MDA-MB-231 [1]) greater than 50%, an IC50 (A549 [2]) greater than 10 µM and an IC50 (MDA-MB-231 [3]) greater than 10 µM. For the same molecule, the viability at 100 µM (A549 [4]) was greater than 50%, the viability at 100 µM (SK-BR-3 [5]) was greater than 50% and the IC50 (SK-BR-3 [6]) was greater than 10 µM.

For CC1(C)O[C@H]2CC(=O)OC[C@]23[C@H]2CCC4=C([C@H]5CCC(=O)O5)C(=O)CC[C@@]4(C)[C@]2(C)[C@H](OC(=O)c2ccccc2)C[C@@H]13, the viability at 100 µM (MDA-MB-231 [1]) was greater than 50%, the IC50 (A549 [2]) was greater than 10 µM and the IC50 (MDA-MB-231 [3]) was greater than 10 µM. For the same molecule, the viability at 100 µM (A549 [4]) was greater than 50%, the Activity (MDA-MB-231 [7]) was “Active” and the viability at 100 µM (SK-BR-3 [5]) was greater than 50%. The IC50 (SK-BR-3 [6]) was greater than 10 µM.

CC1(C)O[C@H]2CC(=O)OC[C@]23[C@H]2CCC4=C([C@@H]5CCC(=O)O5)C(=O)CC[C@@]4(C)[C@]2(C)[C@H](OC(=O)c2ccccc2)C[C@@H]13 gave a viability at 100 µM (MDA-MB-231 [1]) greater than 50%, an IC50 (A549 [2]) greater than 10 µM and an IC50 (MDA-MB-231 [3]) greater than 10 µM. For the same molecule, the Activity (MDA-MB-231 [8]) was “Active”, the viability at 100 µM (A549 [4]) was greater than 50% and the viability at 100 µM (SK-BR-3 [5]) was greater than 50%. The IC50 (SK-BR-3 [6]) was greater than 10 µM.

With COC(=O)[C@H](C1=C2[C@H]3O[C@H]3[C@@H]3[C@@]45COC(=O)C[C@@H]4OC(C)(C)[C@@H]5C[C@@H](OC(=O)c4ccccc4)[C@@]3(C)[C@]2(C)CCC1=O)C(C)(C)CC(=O)O the Activity (MDA-MB-231 [9]) was “Active”, the viability at 100 µM (MDA-MB-231 [1]) was greater than 50% and the IC50 (A549 [2]) was greater than 10 µM. It also gave an IC50 (MDA-MB-231 [3]) greater than 10 µM, a viability at 100 µM (A549 [4]) greater than 50% and a viability at 100 µM (SK-BR-3 [5]) greater than 50%. It also gave an IC50 (SK-BR-3 [6]) greater than 10 µM.

With COC(=O)CC(C)(C)[C@H](C(=O)OC)C1=C2CC[C@@H]3[C@@]45COC(=O)C[C@@H]4OC(C)(C)[C@@H]5C[C@@H](OC(=O)c4ccccc4)[C@@]3(C)[C@]2(C)CCC1=O the viability at 100 µM (MDA-MB-231 [1]) was greater than 50%, the IC50 (A549 [2]) was greater than 10 µM and the IC50 (MDA-MB-231 [3]) was greater than 10 µM. For the same molecule, the viability at 100 µM (A549 [4]) was greater than 50%, the viability at 100 µM (SK-BR-3 [5]) was greater than 50% and the IC50 (SK-BR-3 [6]) was greater than 10 µM.

COC(=O)[C@@H]1C2=C(CC[C@]3(C)C2=CC[C@@H]2[C@@]45COC(=O)C[C@@H]4OC(C)(C)[C@@H]5C[C@@H](O)[C@]23C)OC(=O)CC1(C)C gave a viability at 100 µM (MDA-MB-231 [1]) greater than 50%, an IC50 (A549 [2]) greater than 10 µM and an IC50 (MDA-MB-231 [3]) greater than 10 µM. The viability at 100 µM (A549 [4]) was greater than 50%, the viability at 100 µM (SK-BR-3 [5]) was greater than 50% and the IC50 (SK-BR-3 [6]) was greater than 10 µM.

COC(=O)CC(C)(C)[C@H](C(=O)OC)C1=C2CC[C@@H]3[C@@]45COC(=O)C[C@@H]4OC(C)(C)[C@@H]5CC[C@@]3(C)[C@]2(C)CCC1=O was tested, and the Activity (MDA-MB-231 [10]) was “Active”, the viability at 100 µM (MDA-MB-231 [1]) was greater than 50% and the IC50 (A549 [2]) was greater than 10 µM. The IC50 (MDA-MB-231 [3]) was greater than 10 µM, the Activity (A549 [11]) was “Active” and the viability at 100 µM (A549 [4]) was greater than 50%. It also gave a viability at 100 µM (SK-BR-3 [5]) greater than 50% and an IC50 (SK-BR-3 [6]) greater than 10 µM.

In the case of COC(=O)[C@H](C1=C2C=C[C@@H]3[C@@]45COC(=O)C[C@@H]4OC(C)(C)[C@@H]5C[C@@H](OC(=O)c4ccccc4)[C@@]3(C)[C@]2(C)CCC1=O)C(C)(C)CC(=O)O, the Activity (MDA-MB-231 [10]) is reported as “Active”, the viability at 100 µM (MDA-MB-231 [1]) is reported as greater than 50% and the IC50 (A549 [2]) is reported as greater than 10 µM. It also gave an IC50 (MDA-MB-231 [3]) greater than 10 µM, a viability at 100 µM (A549 [4]) greater than 50% and a viability at 100 µM (SK-BR-3 [5]) greater than 50%. The IC50 (SK-BR-3 [6]) was greater than 10 µM.
